{
  "source": "patent EP1211260A1",
  "about": "“Peptides from Ag85 of mycobacterium and uses thereof” (priority 2000, dated 2002)",
  "biological_target": "Recombinant HLA-A*201 (Homo sapiens, UniProt P04439, D140Y/D185E/D98H/E176V/E277Q/G131W/G231S/I119V/I121R/I166T/I218V/L300P/L318F/N151K/N90K/P208A/P217A/Q86G/Q94H/R138H/R169H/T345S)",
  "assay": "biochemical",
  "format": "binding",
  "key": {"[1]": {"details": "20°C, 48 h, standard peptide HBV core 47-56 (52->C), read-out: HLA-A2 Binding Affinity(IC50; µM)"}},
  "note": "Read-outs that look alike come from different tables or passages of the source. Where a SMILES comes first, the peptide text is derived from it.",
  "data": [
    {"smiles": "CC(C)C[C@H](NC(=O)[C@H](Cc1c[nH]c2ccccc12)NC(=O)[C@H](CCC(N)=O)NC(=O)[C@@H]1CCCN1C(=O)[C@H](CC(C)C)NC(=O)[C@H](CCC(=O)O)NC(=O)[C@H](CO)NC(=O)[C@@H](NC(=O)[C@@H](N)CC(C)C)[C@@H](C)O)C(=O)O", "note": "[101-109] (H-LTSELPQWL-OH)", "values": [
      {"measurement": "IC50", "setting": "[1]", "value": 6, "unit": "µM"}
    ]},
    {"smiles": "CC(C)C[C@H](NC(=O)[C@H](CC(N)=O)NC(=O)[C@H](CO)NC(=O)[C@H](CO)NC(=O)[C@H](CCCNC(=N)N)NC(=O)[C@@H](NC(=O)[C@H](Cc1ccccc1)NC(=O)[C@H](CC(N)=O)NC(=O)[C@H](CCC(=O)O)NC(=O)[C@H](CC(C)C)NC(=O)[C@@H](N)Cc1ccccc1)C(C)C)C(=O)O", "note": "[228-238] (H-FLENFVRSSNL-OH)", "values": [
      {"measurement": "IC50", "setting": "[1]", "value": 1.2, "unit": "µM"}
    ]},
    {"smiles": "CC[C@H](C)[C@H](NC(=O)[C@@H](N)Cc1ccccc1)C(=O)N[C@@H](Cc1ccc(O)cc1)C(=O)N[C@@H](C)C(=O)NCC(=O)N[C@@H](CO)C(=O)N[C@@H](CC(C)C)C(=O)N[C@@H](CO)C(=O)N[C@@H](C)C(=O)O", "note": "[143-151] (H-FIYAGSLSA-OH)", "values": [
      {"measurement": "IC50", "setting": "[1]", "value": 0.4, "unit": "µM"}
    ]},
    {"smiles": "CC[C@H](C)[C@H](NC(=O)[C@H](CCSC)NC(=O)[C@H](C)NC(=O)[C@H](CO)NC(=O)[C@H](CO)NC(=O)CNC(=O)[C@H](C)NC(=O)[C@H](CCSC)NC(=O)[C@@H](N)CO)C(=O)N[C@@H](CC(C)C)C(=O)O", "note": "[126-135] (H-SMAGSSAMIL-OH)", "values": [
      {"measurement": "IC50", "setting": "[1]", "value": 0.5, "unit": "µM"}
    ]},
    {"smiles": "CC[C@H](C)[C@H](NC(=O)[C@@H](N)Cc1ccccc1)C(=O)N[C@@H](Cc1ccc(O)cc1)C(=O)N[C@@H](C)C(=O)NCC(=O)N[C@@H](CO)C(=O)N[C@@H](CC(C)C)C(=O)N[C@@H](CO)C(=O)N[C@@H](C)C(=O)N[C@@H](CC(C)C)C(=O)O", "note": "[143-152, FIYAGSLSAL] (H-FIYAGSLSAL-OH)", "values": [
      {"measurement": "IC50", "setting": "[1]", "value": 0.01, "unit": "µM"}
    ]},
    {"smiles": "CC(C)C[C@H](NC(=O)[C@H](CCCNC(=N)N)NC(=O)[C@@H](NC(=O)[C@H](CC(N)=O)NC(=O)[C@H](CC(N)=O)NC(=O)[C@H](C)NC(=O)[C@@H](NC(=O)[C@H](CC(C)C)NC(=O)[C@@H](N)CCCCN)C(C)C)[C@@H](C)O)C(=O)O", "note": "[199-207] (H-KLVANNTRL-OH)", "values": [
      {"measurement": "IC50", "value": 1.4, "unit": "µM"}
    ]},
    {"smiles": "CC(C)C[C@H](NC(=O)[C@H](CCCNC(=N)N)NC(=O)[C@@H](NC(=O)[C@H](CC(N)=O)NC(=O)[C@H](CC(N)=O)NC(=O)[C@H](C)NC(=O)[C@@H](NC(=O)[C@H](CC(C)C)NC(=O)[C@@H](N)CCCCN)C(C)C)[C@@H](C)O)C(=O)N[C@@H](Cc1c[nH]c2ccccc12)C(=O)N[C@H](C(=O)O)C(C)C", "note": "[199-209] (H-KLVANNTRLWV-OH)", "values": [
      {"measurement": "IC50", "setting": "[1]", "value": 0.6, "unit": "µM"}
    ]},
    {"smiles": "CC[C@H](C)[C@H](NC(=O)[C@H](CC(C)C)NC(=O)[C@H](CO)NC(=O)[C@@H]1CCCN1C(=O)CNC(=O)[C@H](CCSC)NC(=O)CN)C(=O)NCC(=O)N[C@@H](CC(C)C)C(=O)O", "note": "[158-166] (H-GMGPSLIGL-OH)", "values": [
      {"measurement": "IC50", "setting": "[1]", "value": 1.4, "unit": "µM"}
    ]},
    {"smiles": "CC(C)C[C@H](NC(=O)CNC(=O)[C@H](CC(=O)O)NC(=O)[C@H](CC(C)C)NC(=O)[C@H](CC(C)C)NC(=O)[C@@H](N)Cc1ccc(O)cc1)C(=O)N[C@@H](CCCNC(=N)N)C(=O)N[C@@H](C)C(=O)O", "note": "[37-44] (H-YLLDGLRA-OH)", "values": [
      {"measurement": "IC50", "setting": "[1]", "value": 1.6, "unit": "µM"}
    ]},
    {"smiles": "CC[C@H](C)[C@H](NC(=O)[C@H](CO)NC(=O)[C@H](CC(C)C)NC(=O)CN)C(=O)N[C@H](C(=O)N[C@@H](CCSC)C(=O)N1CCC[C@H]1C(=O)N[C@H](C(=O)O)C(C)C)C(C)C", "note": "[65-72] (H-GLSIVMPV-OH)", "values": [
      {"measurement": "IC50", "setting": "[1]", "value": 0.3, "unit": "µM"}
    ]},
    {"smiles": "CC(C)C[C@H](NC(=O)[C@H](Cc1c[nH]c2ccccc12)NC(=O)[C@H](CCC(N)=O)NC(=O)[C@@H]1CCCN1C(=O)[C@H](CC(C)C)NC(=O)[C@H](CCC(=O)O)NC(=O)[C@H](CO)NC(=O)[C@@H](NC(=O)[C@H](CC(C)C)NC(=O)[C@@H](N)Cc1ccccc1)[C@@H](C)O)C(=O)O", "note": "[100-109] (H-FLTSELPQWL-OH)", "values": [
      {"measurement": "IC50", "setting": "[1]", "value": 0.7, "unit": "µM"}
    ]},
    {"smiles": "CC[C@H](C)[C@H](NC(=O)[C@H](CCSC)NC(=O)[C@H](C)NC(=O)[C@H](CO)NC(=O)[C@H](CO)NC(=O)CNC(=O)[C@H](C)NC(=O)[C@H](CCSC)NC(=O)[C@@H](N)CO)C(=O)O", "note": "[126-134] (H-SMAGSSAMI-OH)", "values": [
      {"measurement": "IC50", "value": 1.7, "unit": "µM"}
    ]},
    {"smiles": "CC(C)C[C@H](NC(=O)[C@H](Cc1ccc(O)cc1)NC(=O)[C@H](CCC(=O)O)NC(=O)[C@@H](NC(=O)[C@@H]1CCCN1C(=O)[C@H](CC(C)C)NC(=O)CN)C(C)C)C(=O)N[C@@H](CCC(N)=O)C(=O)N[C@H](C(=O)O)C(C)C", "note": "[5-13] (H-GLPVEYLQV-OH)", "values": [
      {"measurement": "IC50", "setting": "[1]", "value": 7, "unit": "µM"}
    ]},
    {"smiles": "CC(C)C[C@H](NC(=O)[C@@H](N)CCCNC(=N)N)C(=O)N[C@@H](Cc1c[nH]c2ccccc12)C(=O)N[C@H](C(=O)N[C@@H](Cc1ccc(O)cc1)C(=O)N[C@@H](CS)C(=O)NCC(=O)N[C@@H](CC(N)=O)C(=O)NCC(=O)N[C@H](C(=O)O)[C@@H](C)O)C(C)C", "note": "[206-215] (H-RLWVYCGNGT-OH)", "values": [
      {"measurement": "IC50", "setting": "[1]", "value": 2, "unit": "µM"}
    ]}
  ]
}
